# Reference: PubChem BioAssay AID1963422 (Molecular Pharmacology Branch, DTP, NCI, 2024)
# pIC50: −log10 of the molar value.
# Test system: 463943-066-T-J2-PDC complex spheroid growth
# Test: Anticancer human tumor 463943-066-T-J2-PDC patient-derived colon adenocarcinoma cell line growth inhibition [Asc]
# Conditions: for pIC50: curve of first compound; for viability, T/C: stronger effect = lower value
# Protocol: Multicellular complex tumor spheroid response to apoptosis pathway targeting inhibitors Alrizomadlin, Pelcitoclax, and Dasminapant in combination with a variety of drugs and investigational agents in selected tumor cell lines
# The MDM2 inhibitor alrizomadlin, the Bcl-2/Bcl-xL inhibitor pelcitoclax, and the IAPs inhibitor dasminapant were evaluated both individually and in combination with standard of care and investigational anticancer small molecules within a complex spheroid model of solid tumors. . Complex spheroids include a stromal component modeled by human endothelial cells (HUVEC) and fibroblasts modeled by human mesenchymal stem cells (MSCs). The concentration ranges selected for each drug and investigational agent were based upon clinically achievable concentrations if the clinical Cmax of the agent was known.
# Compounds. The drugs and investigational agents: alrizomadlin (APG-115; NSC831270), pelcitoclax (APG-1252; NSC835773), dasminapant (APG-1387;NSC834197), TAK-243 (NSC785004), copanlisib (NSC809693), olaparib (NSC753686), talazoparib (NSC767125), cobimetinib (NSC 768068), eltanexor (KPT-8602, NSC 794443), abemaciclib (NSC 768073), sotorasib (NSC818433), adagrasib (NSC 831453), MRTX-1133 (NSC 836407), Iadademestat (ORY1001, NSC 806812), and RMC-4630 (NSC839698), were obtained from the NCI Developmental Therapeutics Program Chemical Repository. The FDA-approved anticancer drug set is available from the Developmental Therapeutics Program at https://dtp.cancer.gov/organization/dscb/obtaining/available plates.htm. […] The stock solutions were prepared in dimethyl sulfoxide (DMSO, Sigma-Aldrich, St. Louis, MO, cat. D2650) at 800-fold the tested concentration and stored at -70 degrees C prior to their use. All drugs and investigational agents were tested over a range starting from a high concentration at or near the clinical Cmax and decreasing in half-log increments. If the clinical Cmax for an agent had not been determined, the highest concentration tested was 10 microM.
# The patient-derived cancer (PDC) cell lines include five colon adenocarcinomas: 186277-243-T-J2-PDC, 616215-338-R-J1-PDC, 439559-082-T-J2-PDC, 463943-066-T-J2-PDC, and 519858-162-T-J1-PDC; three pancreatic carcinomas: 323965-272-R-J2-PDC, 521955-158-R6-J3-PDC, and 521955-158-R2-J5-PDC; two uterine sarcomas: 327498-152-R-J2-PDC and 993429-296-R-J1-PDC; two rhabdomyosarcomas: 755483-174-R-J1-PDC and 772245-204-R-J1-PDC; two soft tissue sarcomas: 126254-015-R-J1-PDC and 494315-158-R-J1-PDC; two malignant fibrous histiocytomas: 317291-083-R-J1-PDC and 596521-263-R-J1-PDC; two breast carcinomas: 171881-019-R-J1-PDC and 885512-296-R-J2-PDC; and one ovarian carcinoma: 6556581-035-R-J-PDC were obtained from the NCI PDMR, (https://pdmr.cancer.gov). The established cell lines HSSY-2 synovial sarcoma (RRID:CVCL 8719), SYO-1 synovial sarcoma (RRID:CVCL_7146), MPNST malignant peripheral neural sheath tumor were obtained from the Sloan Kettering Institute. The following established cell lines were purchased from the American Type Culture Collection (ATCC, Manassas, VA), Sor the received from the NCI repository:, PANC-1 pancreatic carcinoma (CRL-1469, RRID:CVCL_0480), OVCAR-5 ovarian carcinoma (RRID:CVCL_1628), OVCAR-8 ovarian carcinoma (RRID:CVCL_1629), , MCF-7 breast carcinoma (CRL-12584, RRID:CVCL_0031), MDA-MB-231 breast carcinoma (CRL-12532, RRID:CVCL_0062), NCI-H1876 small cell lung carcinoma (CRL-5902, RRID:CVCL_1503), NCI-H510A small cell lung carcinoma (HTB-184, RRID:CVCL_1565), NCI-H1417 (CRL-5869, RRID:CVCL_1469), and NCI-H196 small cell lung carcinoma (CRL-5823, RRID:CVCL_1509). Dr. Peter Houghton (Greehey Children's Cancer Research Institute, University of Texas Health Science Center, San Antonio, TX) provided Rh-18 rhabdomyosarcoma (RRID:CVCL_1659). Pooled donor human umbilical vein endothelial cells (HUVEC, Lonza, cat. CC-2519) and human mesenchymal stem cells (hMSC, Lonza, cat. PT-2501) were purchased from Lonza (Walkersville, MD).
# Cell Culture. […]
# [1] = second compound 0.00949 µM, first compound 0.0316 µM
# [2] = second compound 0.00949 µM, first compound 0.1 µM
# [3] = second compound 0.03 µM, first compound 0.0316 µM
# [4] = second compound 0.03 µM, first compound 0.1 µM
# [5] = second compound 0.0949 µM, first compound 0.0316 µM
# [6] = second compound 0.0949 µM, first compound 0.1 µM
# [7] = second compound 0.3 µM, first compound 0.0316 µM
# [8] = second compound 0.3 µM, first compound 0.1 µM
# [9] = second compound 0.949 µM, first compound 0.0316 µM
# [10] = second compound 0.949 µM, first compound 0.1 µM
# [11] = second compound 3 µM, first compound 0.0316 µM
# [12] = second compound 3 µM, first compound 0.1 µM
# 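Note: compound exposure lasted 7 days.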
# 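Throughout, for viability, T/C: 100% = DMSO vehicle control wells.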
smiles,measurement,setting,value
Cn1ncnc1[C@H]1c2n[nH]c(=O)c3cc(F)cc(c23)N[C@@H]1c1ccc(F)cc1 + CCN1C(C(=O)NC23CCC(C(=O)O)(CC2)CC3)C(c2cccc(Cl)c2F)C2(C(=O)Nc3cc(Cl)ccc32)C12CCCCC2,pIC50,second compound 0.00949 µM,< 7.00
same,pIC50,second compound 0.03 µM,< 7.00
same,pIC50,second compound 0.0949 µM,< 7.00
same,pIC50,second compound 0.3 µM,< 7.00
same,pIC50,second compound 0.949 µM,< 7.00
same,pIC50,second compound 3 µM,< 7.00
same,"viability, T/C","second compound 0.00949 µM, first compound 0.000316 µM",102%
same,"viability, T/C","second compound 0.00949 µM, first compound 0.001 µM",96.2%
same,"viability, T/C","second compound 0.00949 µM, first compound 0.00316 µM",106%
same,"viability, T/C","second compound 0.00949 µM, first compound 0.01 µM",97.2%
same,"viability, T/C",[1],100%
same,"viability, T/C",[2],88.1%
same,"viability, T/C","second compound 0.03 µM, first compound 0.000316 µM",98.7%
same,"viability, T/C","second compound 0.03 µM, first compound 0.001 µM",98.6%
same,"viability, T/C","second compound 0.03 µM, first compound 0.00316 µM",95.7%
same,"viability, T/C","second compound 0.03 µM, first compound 0.01 µM",98.2%
same,"viability, T/C",[3],96.5%
same,"viability, T/C",[4],90.1%
same,"viability, T/C","second compound 0.0949 µM, first compound 0.000316 µM",101%
same,"viability, T/C","second compound 0.0949 µM, first compound 0.001 µM",89.1%
same,"viability, T/C","second compound 0.0949 µM, first compound 0.00316 µM",89.8%
same,"viability, T/C","second compound 0.0949 µM, first compound 0.01 µM",89.6%
same,"viability, T/C",[5],92.8%
same,"viability, T/C",[6],79.1%
same,"viability, T/C","second compound 0.3 µM, first compound 0.000316 µM",85.4%
same,"viability, T/C","second compound 0.3 µM, first compound 0.001 µM",85.3%
same,"viability, T/C","second compound 0.3 µM, first compound 0.00316 µM",85.7%
same,"viability, T/C","second compound 0.3 µM, first compound 0.01 µM",85.6%
same,"viability, T/C",[7],81.5%
same,"viability, T/C",[8],79%
same,"viability, T/C","second compound 0.949 µM, first compound 0.000316 µM",75.4%
same,"viability, T/C","second compound 0.949 µM, first compound 0.001 µM",76.1%
same,"viability, T/C","second compound 0.949 µM, first compound 0.00316 µM",72.5%
same,"viability, T/C","second compound 0.949 µM, first compound 0.01 µM",77.9%
same,"viability, T/C",[9],75.4%
same,"viability, T/C",[10],76.3%
same,"viability, T/C","second compound 3 µM, first compound 0.000316 µM",71.1%
same,"viability, T/C","second compound 3 µM, first compound 0.001 µM",70.2%
same,"viability, T/C","second compound 3 µM, first compound 0.00316 µM",75.3%
same,"viability, T/C","second compound 3 µM, first compound 0.01 µM",67.4%
same,"viability, T/C",[11],73.2%
same,"viability, T/C",[12],74%
O=C(c1cc(Cc2n[nH]c(=O)c3ccccc23)ccc1F)N1CCN(C(=O)C2CC2)CC1 + CCN1C(C(=O)NC23CCC(C(=O)O)(CC2)CC3)C(c2cccc(Cl)c2F)C2(C(=O)Nc3cc(Cl)ccc32)C12CCCCC2,pIC50,second compound 0.00949 µM,< 5.00
same,pIC50,second compound 0.03 µM,< 5.00
same,pIC50,second compound 0.0949 µM,< 5.00
same,pIC50,second compound 0.3 µM,< 5.00
same,pIC50,second compound 0.949 µM,< 5.00
same,pIC50,second compound 3 µM,< 5.00
same,"viability, T/C",[1],99.4%
same,"viability, T/C",[2],102%
same,"viability, T/C","second compound 0.00949 µM, first compound 0.316 µM",95.9%
same,"viability, T/C","second compound 0.00949 µM, first compound 1 µM",104%
same,"viability, T/C","second compound 0.00949 µM, first compound 3.16 µM",106%
same,"viability, T/C","second compound 0.00949 µM, first compound 10 µM",91.5%
same,"viability, T/C",[3],103%
same,"viability, T/C",[4],88.8%
same,"viability, T/C","second compound 0.03 µM, first compound 0.316 µM",94.6%
same,"viability, T/C","second compound 0.03 µM, first compound 1 µM",97.4%
same,"viability, T/C","second compound 0.03 µM, first compound 3.16 µM",96.9%
same,"viability, T/C","second compound 0.03 µM, first compound 10 µM",89.9%
same,"viability, T/C",[5],98.5%
same,"viability, T/C",[6],85.4%
same,"viability, T/C","second compound 0.0949 µM, first compound 0.316 µM",92.7%
same,"viability, T/C","second compound 0.0949 µM, first compound 1 µM",89.8%
same,"viability, T/C","second compound 0.0949 µM, first compound 3.16 µM",89.1%
same,"viability, T/C","second compound 0.0949 µM, first compound 10 µM",81.4%
same,"viability, T/C",[7],87.9%
same,"viability, T/C",[8],80.1%
same,"viability, T/C","second compound 0.3 µM, first compound 0.316 µM",83.4%
same,"viability, T/C","second compound 0.3 µM, first compound 1 µM",83.2%
same,"viability, T/C","second compound 0.3 µM, first compound 3.16 µM",76.4%
same,"viability, T/C","second compound 0.3 µM, first compound 10 µM",83.7%
same,"viability, T/C",[9],76.7%
same,"viability, T/C",[10],75.2%
same,"viability, T/C","second compound 0.949 µM, first compound 0.316 µM",74.3%
same,"viability, T/C","second compound 0.949 µM, first compound 1 µM",75.8%
same,"viability, T/C","second compound 0.949 µM, first compound 3.16 µM",75.5%
same,"viability, T/C","second compound 0.949 µM, first compound 10 µM",72%
same,"viability, T/C",[11],72.3%
same,"viability, T/C",[12],69.1%
same,"viability, T/C","second compound 3 µM, first compound 0.316 µM",70.9%
same,"viability, T/C","second compound 3 µM, first compound 1 µM",71.7%
same,"viability, T/C","second compound 3 µM, first compound 3.16 µM",70.6%
same,"viability, T/C","second compound 3 µM, first compound 10 µM",74.7%
